Reference: ChEMBL document CHEMBL1201862, “PubChem BioAssay data set” (2004)
Activity calls are given as the source filed them.

Experiments:
[1] = viability of HCT116 lacking mutant beta-catenin – cell-based, human colon tumor, dose response (AID 1045); assay type: functional;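 also: HCT116 colon tumor cells with beta catenin knocked out; cells exposed to compound for 60 hours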
A-375 [2] = test: MITF: Counter assay: A375 proliferation Measured in Cell-Based System Using Plate Reader - 2084-03_Inhibitor_Dose_DryPowder_Activity. [Related pubchem assays (depositor defined):AID488944]; assay type: functional; conditions: Homo sapiens
A-375 [3] = test: proliferation inhibition in MITF-low A375 cells – cell-based, cherry-pick samples, set 2, counter-screen for MITF modulator project, dose response (AID 540335); assay type: functional; conditions: Homo sapiens
[4] = viability of PTEN-deleted HCT116 cells – cell-based, HCT116 PTEN knockout, dose response (AID 1047); assay type: functional;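 also: HCT116 colon tumor cells with PTEN knocked out; cells exposed to compound for 60 hours before readout; potency for loss of cell viability measured by luminescence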
[5] = target: T1, Intestinal-type alkaline phosphatase (Homo sapiens, UniProt P09923); test: Dose Response confirmation of uHTS hits from a small molecule inhibitors of human intestinal alkaline phosphatase via a luminescent assay. [Related pubchem assays (depositor defined):AID2544, AID2574]; assay type: functional
Nonstructural protein 1 = Nonstructural protein 1 (Influenza A virus, UniProt Q194T2); assay type: functional, Influenza A virus (A/California/07/2009(H1N1))
[6] = target: T2, Alkaline phosphatase, tissue-nonspecific isozyme (Homo sapiens, UniProt P05186); test: inhibition of tissue-nonspecific alkaline phosphatase – biochemical, dose response (AID 488882); assay type: functional
T2 sequence (P05186 whole entry): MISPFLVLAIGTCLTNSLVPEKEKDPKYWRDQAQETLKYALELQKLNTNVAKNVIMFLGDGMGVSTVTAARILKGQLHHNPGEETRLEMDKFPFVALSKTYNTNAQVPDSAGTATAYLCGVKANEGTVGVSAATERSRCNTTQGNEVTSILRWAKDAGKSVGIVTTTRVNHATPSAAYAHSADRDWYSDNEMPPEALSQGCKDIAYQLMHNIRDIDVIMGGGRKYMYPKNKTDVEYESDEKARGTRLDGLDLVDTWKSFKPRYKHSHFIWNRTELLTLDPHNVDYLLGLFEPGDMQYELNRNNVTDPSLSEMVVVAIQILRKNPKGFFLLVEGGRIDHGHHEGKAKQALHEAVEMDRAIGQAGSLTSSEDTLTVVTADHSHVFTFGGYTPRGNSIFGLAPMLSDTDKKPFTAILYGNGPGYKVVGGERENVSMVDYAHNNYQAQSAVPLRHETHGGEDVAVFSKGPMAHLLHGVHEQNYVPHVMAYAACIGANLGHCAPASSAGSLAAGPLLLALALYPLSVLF

[7] = target: Intestinal-type alkaline phosphatase (Mus musculus, UniProt P24822); test: PubChem AID 488874; assay type: functional
[8] = target: T3, Oxysterols receptor LXR-beta (Homo sapiens, UniProt P55055); assay type: functional, cell-based;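 also: Cell-based luminescence dose-response assay of agonist activity at LXR, run as a confirmatory counterscreen to a daf-12 agonist screen; HEK293 cells with Gal4-LXR fusion and GAL4-driven luciferase reporter; agonist potency from rising luciferase signal of a Gal4-LXR reporter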
T3 sequence (P55055 whole entry): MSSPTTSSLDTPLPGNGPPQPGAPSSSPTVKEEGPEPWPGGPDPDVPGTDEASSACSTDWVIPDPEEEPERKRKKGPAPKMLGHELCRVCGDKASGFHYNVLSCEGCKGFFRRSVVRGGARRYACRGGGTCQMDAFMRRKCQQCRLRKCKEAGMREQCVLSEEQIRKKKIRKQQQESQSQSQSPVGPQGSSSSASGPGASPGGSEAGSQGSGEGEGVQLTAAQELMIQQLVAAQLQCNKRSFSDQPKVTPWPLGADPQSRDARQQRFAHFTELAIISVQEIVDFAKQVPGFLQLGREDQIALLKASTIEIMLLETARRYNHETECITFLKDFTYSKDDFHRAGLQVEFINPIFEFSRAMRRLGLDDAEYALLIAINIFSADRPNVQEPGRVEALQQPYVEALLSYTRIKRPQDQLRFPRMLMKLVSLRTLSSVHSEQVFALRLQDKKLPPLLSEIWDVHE

[9] = target: T1, Intestinal-type alkaline phosphatase; test: inhibition of human intestinal alkaline phosphatase – biochemical, luminescent, uHTS hits, set 2, dose response (AID 488793); assay type: functional
[10] = target: T4, Voltage-dependent T-type calcium channel subunit alpha-1H (Homo sapiens, UniProt O95180); test: inhibition of CACNA1H calcium flux – cell-based, SynthLib3 library, HEK293 Cav3.2, fluorescence (AID 493041); assay type: functional
[11] = target: T4, Voltage-dependent T-type calcium channel subunit alpha-1H; test: human CACNA1H calcium influx blockade – cell-based, synthetic library set 2, HEK293 HH8, Fluo-4, SAR follow-up (AID 493023); assay type: functional

T1 sequence (P09923 whole entry): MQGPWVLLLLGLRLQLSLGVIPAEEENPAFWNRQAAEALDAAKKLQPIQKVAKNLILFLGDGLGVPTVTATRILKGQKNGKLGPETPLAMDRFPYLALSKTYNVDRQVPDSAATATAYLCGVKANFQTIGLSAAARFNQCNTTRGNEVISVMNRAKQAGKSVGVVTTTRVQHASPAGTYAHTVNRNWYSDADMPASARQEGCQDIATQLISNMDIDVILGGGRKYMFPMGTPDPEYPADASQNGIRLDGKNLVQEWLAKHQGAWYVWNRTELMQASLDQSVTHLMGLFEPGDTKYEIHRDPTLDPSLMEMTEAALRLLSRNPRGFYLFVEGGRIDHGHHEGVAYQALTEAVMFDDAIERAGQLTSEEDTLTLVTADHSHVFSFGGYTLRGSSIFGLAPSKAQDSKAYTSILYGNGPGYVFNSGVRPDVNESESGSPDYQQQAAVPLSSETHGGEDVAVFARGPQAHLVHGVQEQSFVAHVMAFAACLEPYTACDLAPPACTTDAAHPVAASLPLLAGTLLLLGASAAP
T4 sequence (O95180 whole entry): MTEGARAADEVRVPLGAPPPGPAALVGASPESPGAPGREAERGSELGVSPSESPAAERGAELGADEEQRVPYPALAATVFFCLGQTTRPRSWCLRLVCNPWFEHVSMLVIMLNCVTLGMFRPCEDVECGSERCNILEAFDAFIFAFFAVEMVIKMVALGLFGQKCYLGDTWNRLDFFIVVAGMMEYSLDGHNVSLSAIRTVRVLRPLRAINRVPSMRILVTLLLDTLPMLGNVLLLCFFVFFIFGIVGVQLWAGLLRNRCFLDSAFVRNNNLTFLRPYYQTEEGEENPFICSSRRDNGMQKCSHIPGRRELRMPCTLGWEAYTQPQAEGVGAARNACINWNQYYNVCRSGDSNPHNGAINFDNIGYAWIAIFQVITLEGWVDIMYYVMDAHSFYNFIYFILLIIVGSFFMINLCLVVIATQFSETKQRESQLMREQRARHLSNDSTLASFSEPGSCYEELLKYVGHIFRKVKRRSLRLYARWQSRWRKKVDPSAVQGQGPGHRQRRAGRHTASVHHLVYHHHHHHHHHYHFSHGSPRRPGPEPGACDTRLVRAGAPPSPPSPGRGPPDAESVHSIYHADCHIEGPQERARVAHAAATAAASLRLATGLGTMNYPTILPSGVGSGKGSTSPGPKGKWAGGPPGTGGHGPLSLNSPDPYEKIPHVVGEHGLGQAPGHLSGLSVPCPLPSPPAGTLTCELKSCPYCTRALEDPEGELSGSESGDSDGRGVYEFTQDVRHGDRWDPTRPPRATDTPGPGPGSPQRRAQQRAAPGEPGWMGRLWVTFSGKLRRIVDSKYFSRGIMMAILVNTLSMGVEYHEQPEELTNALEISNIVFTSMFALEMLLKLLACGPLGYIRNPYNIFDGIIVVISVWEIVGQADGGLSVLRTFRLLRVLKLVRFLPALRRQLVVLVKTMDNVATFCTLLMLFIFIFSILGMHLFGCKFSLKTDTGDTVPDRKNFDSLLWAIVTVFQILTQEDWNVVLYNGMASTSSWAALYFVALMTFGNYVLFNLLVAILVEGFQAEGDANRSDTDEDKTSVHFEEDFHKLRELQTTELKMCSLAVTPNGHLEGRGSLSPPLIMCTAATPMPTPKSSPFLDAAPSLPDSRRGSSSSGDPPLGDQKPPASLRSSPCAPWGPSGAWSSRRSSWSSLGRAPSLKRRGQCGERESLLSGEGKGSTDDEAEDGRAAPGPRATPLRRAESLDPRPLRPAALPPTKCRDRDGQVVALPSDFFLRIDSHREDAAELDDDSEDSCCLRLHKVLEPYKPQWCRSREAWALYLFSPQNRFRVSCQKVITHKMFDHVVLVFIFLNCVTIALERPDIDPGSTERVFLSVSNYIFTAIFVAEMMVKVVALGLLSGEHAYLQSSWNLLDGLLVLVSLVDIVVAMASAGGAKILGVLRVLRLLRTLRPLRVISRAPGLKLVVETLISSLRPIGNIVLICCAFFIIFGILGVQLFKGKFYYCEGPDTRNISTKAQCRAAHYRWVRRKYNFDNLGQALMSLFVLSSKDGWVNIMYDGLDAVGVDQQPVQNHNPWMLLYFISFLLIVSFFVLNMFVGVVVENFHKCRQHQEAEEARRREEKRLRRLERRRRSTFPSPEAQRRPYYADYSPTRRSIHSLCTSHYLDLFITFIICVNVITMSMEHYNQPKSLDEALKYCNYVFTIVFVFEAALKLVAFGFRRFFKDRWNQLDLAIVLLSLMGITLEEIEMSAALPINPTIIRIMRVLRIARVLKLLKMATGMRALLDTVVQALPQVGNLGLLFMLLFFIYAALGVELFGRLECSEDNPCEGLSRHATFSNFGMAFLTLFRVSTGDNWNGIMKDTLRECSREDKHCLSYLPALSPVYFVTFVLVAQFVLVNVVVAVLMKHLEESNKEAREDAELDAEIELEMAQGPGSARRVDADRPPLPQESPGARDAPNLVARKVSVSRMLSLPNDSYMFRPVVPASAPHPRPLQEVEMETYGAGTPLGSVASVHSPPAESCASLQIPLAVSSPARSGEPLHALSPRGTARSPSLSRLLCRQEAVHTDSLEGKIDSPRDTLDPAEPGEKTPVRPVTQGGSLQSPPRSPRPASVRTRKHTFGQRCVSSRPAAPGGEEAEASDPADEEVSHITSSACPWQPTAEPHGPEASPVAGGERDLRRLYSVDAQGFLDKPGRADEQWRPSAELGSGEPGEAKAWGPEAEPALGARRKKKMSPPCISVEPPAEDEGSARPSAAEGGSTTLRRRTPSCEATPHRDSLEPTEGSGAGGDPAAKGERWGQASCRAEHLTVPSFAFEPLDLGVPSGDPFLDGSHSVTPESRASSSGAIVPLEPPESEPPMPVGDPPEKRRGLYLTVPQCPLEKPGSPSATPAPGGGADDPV
Sequence of Nonstructural protein 1 (Q194T2 whole entry): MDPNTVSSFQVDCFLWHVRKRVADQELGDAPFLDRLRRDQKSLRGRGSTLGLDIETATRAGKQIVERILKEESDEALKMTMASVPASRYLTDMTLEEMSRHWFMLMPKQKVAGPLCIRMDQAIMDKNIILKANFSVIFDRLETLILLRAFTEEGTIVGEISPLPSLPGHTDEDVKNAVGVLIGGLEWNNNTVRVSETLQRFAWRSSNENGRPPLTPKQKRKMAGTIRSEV
Sequence of Intestinal-type alkaline phosphatase (Mus musculus, UniProt P24822) (P24822 whole entry, the tested form may be a part): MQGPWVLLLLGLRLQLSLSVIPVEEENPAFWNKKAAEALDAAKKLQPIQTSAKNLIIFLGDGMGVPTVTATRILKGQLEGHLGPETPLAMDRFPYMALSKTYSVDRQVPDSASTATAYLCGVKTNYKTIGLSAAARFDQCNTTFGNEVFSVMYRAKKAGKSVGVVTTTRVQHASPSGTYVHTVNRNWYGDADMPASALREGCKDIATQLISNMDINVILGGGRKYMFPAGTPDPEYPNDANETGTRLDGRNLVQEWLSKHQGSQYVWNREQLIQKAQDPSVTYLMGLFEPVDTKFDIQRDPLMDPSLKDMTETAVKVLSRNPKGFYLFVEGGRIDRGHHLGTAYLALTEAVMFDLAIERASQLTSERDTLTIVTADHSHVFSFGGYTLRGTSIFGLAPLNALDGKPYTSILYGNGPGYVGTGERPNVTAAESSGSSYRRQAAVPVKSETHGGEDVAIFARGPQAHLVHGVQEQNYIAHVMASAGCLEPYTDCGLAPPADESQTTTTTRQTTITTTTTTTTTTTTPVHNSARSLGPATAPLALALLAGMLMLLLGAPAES

## CN(C)CCNC(=O)/C(=C/c1ccc(-c2ccc(Cl)cc2)o1)NC(=O)c1ccccc1
[1]
  EC50: 9.77 µM (active)
A-375 [2]
  AC50: > 11 µM (active)
A-375 [3]
  AC50: > 11 µM (active)
[4]
  EC50: 10.9 µM (active)

## CN(C)c1ccc(N=Nc2ccccc2Br)cc1
[5]
  IC50: 28.1 µM (inactive)
Nonstructural protein 1
  IC50: 17.2 µM (active)
[6]
  IC50: 38.2 µM (active)
cells
  EC50: > 67.5 µM (inactive)
[7]
  IC50: 36 µM (active)
[8]
  EC50: > 67.5 µM (inactive)
[9]
  IC50: 30.9 µM (active)

## CC(C)(C)CCN1CC2CCC(NC(=O)c3cc(Cl)cc(Cl)c3)C2C1 (stereo not drawn)
[10]
  EC50: 80 nM (active)
[11]
  EC50: 660 nM (active)
